Measurements: patent publication US10980765B2, “Isothiocyanatostilbenes as a novel method and product for treating cancer” (BOARD OF SUPERVISORS OF LOUISIANA STATE UNIVERSITY AND …, priority 2015, dated 2021)

Tests used:
[1] = tested on: Cells; test: 2D proliferation (Cell Titer Blue); type: cell-based; settings: 24-72 hours
Experimental: A TO timepoint was also measured. For each timepoint, cells were exposed to Cell Titer Blue reagent (Promega) for 1 hour at 37° C. 5% CO2. Experiments were performed with quadruplicate replicates. Fluorescence was measured using a BioTek Synergy 4 plate reader with Gen5 software.

[2] = biological target: c-Met (Homo sapiens, UniProt P08581); test: Western blot of pMet in c-Met amplified H1993 lung cancer cells without HGF; type: cell-based; design: endogenous in cells; settings: 5 μM compound; no HGF, constitutive c-Met activation
Chain of c-Met (P08581 25-1390): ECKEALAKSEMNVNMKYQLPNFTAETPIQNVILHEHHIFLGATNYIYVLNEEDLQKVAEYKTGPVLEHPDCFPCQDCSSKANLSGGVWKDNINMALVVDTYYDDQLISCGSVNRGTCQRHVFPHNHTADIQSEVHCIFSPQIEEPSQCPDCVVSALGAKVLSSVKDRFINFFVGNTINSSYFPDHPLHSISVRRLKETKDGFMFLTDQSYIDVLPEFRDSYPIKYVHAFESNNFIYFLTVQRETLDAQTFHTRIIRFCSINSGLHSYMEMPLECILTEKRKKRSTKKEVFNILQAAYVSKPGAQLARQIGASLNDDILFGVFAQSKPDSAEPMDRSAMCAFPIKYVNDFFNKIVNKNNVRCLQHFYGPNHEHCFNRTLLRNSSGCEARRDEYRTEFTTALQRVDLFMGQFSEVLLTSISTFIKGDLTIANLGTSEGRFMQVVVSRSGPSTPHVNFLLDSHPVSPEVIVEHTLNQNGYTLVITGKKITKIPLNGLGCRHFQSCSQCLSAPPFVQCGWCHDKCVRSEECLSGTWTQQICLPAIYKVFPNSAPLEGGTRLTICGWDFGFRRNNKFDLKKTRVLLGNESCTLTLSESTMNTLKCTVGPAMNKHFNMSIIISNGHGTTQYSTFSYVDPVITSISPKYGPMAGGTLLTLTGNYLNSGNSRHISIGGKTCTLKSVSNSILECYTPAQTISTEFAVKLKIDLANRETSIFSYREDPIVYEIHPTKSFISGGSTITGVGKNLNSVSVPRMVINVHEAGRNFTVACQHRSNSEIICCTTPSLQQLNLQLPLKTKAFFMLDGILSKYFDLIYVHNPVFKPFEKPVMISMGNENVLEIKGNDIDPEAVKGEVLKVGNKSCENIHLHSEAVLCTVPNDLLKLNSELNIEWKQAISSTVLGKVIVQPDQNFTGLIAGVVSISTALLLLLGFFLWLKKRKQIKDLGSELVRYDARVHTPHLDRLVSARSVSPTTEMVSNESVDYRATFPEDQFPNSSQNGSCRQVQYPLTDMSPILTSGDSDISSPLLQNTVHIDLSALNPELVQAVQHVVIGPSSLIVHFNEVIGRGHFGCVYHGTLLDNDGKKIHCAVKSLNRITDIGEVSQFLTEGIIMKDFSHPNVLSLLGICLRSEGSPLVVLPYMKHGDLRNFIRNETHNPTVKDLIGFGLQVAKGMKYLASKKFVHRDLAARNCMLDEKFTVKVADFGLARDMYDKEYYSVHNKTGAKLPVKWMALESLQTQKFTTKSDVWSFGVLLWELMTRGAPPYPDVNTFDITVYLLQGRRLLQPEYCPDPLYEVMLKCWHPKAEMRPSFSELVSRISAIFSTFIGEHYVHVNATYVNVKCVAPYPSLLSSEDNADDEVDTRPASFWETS
Experimental: Western blot was used to analyze pMet expression. […] Western blot was used to analyze the indicated proteins.
H1993 cells have c-Met amplification such that they have high levels of pMet, even in the absence of HGF, due to constitutive c-Met dimerization and autophosphorylation.
(§1) Western blot analysis: Cells were grown to ˜70% confluency prior to treatment. Cells were serum-starved in serum-free media for 30 minutes prior to treatment in complete media or serum-free media for the indicated times. Cell lysates were collected in Laemmli (125 mM Tris, 4% SDS, 0.01% bromophenol blue, 30% sucrose) containing 0.5% β-mercaptoethanol and boiled ˜8 minutes. Primary antibodies include: phospho-c-Met (Y1234/1235), phospho-Akt (S473), pEGFR […], pIGF-IRβ (Y1135/1136) (Cell Signaling Technology; Beverly, Mass.); α-actin (Sigma-Aldrich), c-Met (C-28) (Life Technologies). Secondary antibodies include: horseradish peroxidase-conjugated anti-rabbit and anti-mouse (GE Healthcare; Pittsburgh, Pa.). ECL 2 was used for chemiluminescent detection (Thermo Scientific; Rockford, Ill.). Densitometry was calculated using ImageJ (NIH).

[3] = Xenograft study, tolerability (body weight, clinical observation); type: in vivo, Athymic nude mice
From the text: Data are shown as average+S.E.M., *p<0.05.
Xenograft studies: All animal experiments were approved by the Institutional Animal Care and Use Committee, University of Louisiana at Monroe, and were handled in strict accordance with good animal practice as defined by the NIH guidelines. Athymic nude mice (Foxn1^nu/Foxn1^+, 4-5 weeks, female) were purchased from Harlan (Indianapolis, Ind.). The mice had free access to standard pellet food and water. The animals were acclimated to animal house facility conditions at a temperature of 18-25° C., with a relative humidity of 55 to 65% and a 12 h light/dark cycle, for one week prior to the experiments. MDA-MB-231/GFP human breast cancer cells were cultured and resuspended in serum-free DMEM medium (20 μl). After anesthesia, cell suspensions (1×10^6 cells/20 μl) were inoculated subcutaneously into the second mammary gland fat pad just beneath the nipple of each animal to generate orthotopic breast tumors. […] The mice were monitored by measuring tumor volume, body weight, and clinical observation. Tumor volume (V) was calculated by V=L/2×W^2, where L was the length and W was the width of tumors. The results are presented as average ±S.E.M. Differences among various treatment groups were determined by the analysis of variance (ANOVA) followed by Dunnett's test using PASW statistics version 18. […]

[4] = tested on: DU145 cells; test: Wound healing; type: cell-based
Experimental: (§2) Cells were fixed and stained for actin. Representative images are shown. […] Data are shown as mean±S.E.M.; n=3.
(§3) For invasion (FIGS. 4C and 4D), wounded cells were overlaid with Matrigel diluted 1:5 in serum-free media; n=3.
(§4) Wound healing and invasion: DU145 cells were grown to ˜100% confluency prior to wounding with the IncuCyte™ WoundMaker™ (Essen Bioscience; Ann Arbor, Mich.) and washed once with complete media. For invasion, cells were covered with Matrigel diluted 1:5 in serum-free RPMI following wounding. […] Images were taken every 4 hours with the IncuCyte™ ZOOM imaging system (Essen Bioscience). Quadruplicate replicates were used in each experiment. Data are presented as percent wound density ±standard error of the mean (S.E.M.).

[5] = tested on: DU145 cells; test: Scattering assay; type: cell-based; settings: 4 μM DIDS or 25 μM H2DIDS
Experimental: as §2
Cells were fixed and stained for actin. Representative images are shown.
Scattering assay: DU145 cells were grown to ˜50% confluency. […] Cells were fixed with 4% paraformaldehyde and stained with Oregon Green 488 phalloidin (Invitrogen; Carlsbad, Calif.). Images were acquired on an Eclipse TE300 inverted microscope (Nikon; Tokyo, Japan) with NIS Elements version 4.13.04 software. Presented images were taken using a 10× objective.

[6] = biological target: T1, IGFR (Homo sapiens, UniProt P08069); test: Western blot of IGFR activation by IGF in DU145 cells; type: cell-based; settings: 4 μM DIDS or 25 μM H2DIDS; DU145, 100 ng/ml IGF 20 min
T1 construct: endogenous in cells; host or cells: DU145
T1 sequence (P08069 31-1367): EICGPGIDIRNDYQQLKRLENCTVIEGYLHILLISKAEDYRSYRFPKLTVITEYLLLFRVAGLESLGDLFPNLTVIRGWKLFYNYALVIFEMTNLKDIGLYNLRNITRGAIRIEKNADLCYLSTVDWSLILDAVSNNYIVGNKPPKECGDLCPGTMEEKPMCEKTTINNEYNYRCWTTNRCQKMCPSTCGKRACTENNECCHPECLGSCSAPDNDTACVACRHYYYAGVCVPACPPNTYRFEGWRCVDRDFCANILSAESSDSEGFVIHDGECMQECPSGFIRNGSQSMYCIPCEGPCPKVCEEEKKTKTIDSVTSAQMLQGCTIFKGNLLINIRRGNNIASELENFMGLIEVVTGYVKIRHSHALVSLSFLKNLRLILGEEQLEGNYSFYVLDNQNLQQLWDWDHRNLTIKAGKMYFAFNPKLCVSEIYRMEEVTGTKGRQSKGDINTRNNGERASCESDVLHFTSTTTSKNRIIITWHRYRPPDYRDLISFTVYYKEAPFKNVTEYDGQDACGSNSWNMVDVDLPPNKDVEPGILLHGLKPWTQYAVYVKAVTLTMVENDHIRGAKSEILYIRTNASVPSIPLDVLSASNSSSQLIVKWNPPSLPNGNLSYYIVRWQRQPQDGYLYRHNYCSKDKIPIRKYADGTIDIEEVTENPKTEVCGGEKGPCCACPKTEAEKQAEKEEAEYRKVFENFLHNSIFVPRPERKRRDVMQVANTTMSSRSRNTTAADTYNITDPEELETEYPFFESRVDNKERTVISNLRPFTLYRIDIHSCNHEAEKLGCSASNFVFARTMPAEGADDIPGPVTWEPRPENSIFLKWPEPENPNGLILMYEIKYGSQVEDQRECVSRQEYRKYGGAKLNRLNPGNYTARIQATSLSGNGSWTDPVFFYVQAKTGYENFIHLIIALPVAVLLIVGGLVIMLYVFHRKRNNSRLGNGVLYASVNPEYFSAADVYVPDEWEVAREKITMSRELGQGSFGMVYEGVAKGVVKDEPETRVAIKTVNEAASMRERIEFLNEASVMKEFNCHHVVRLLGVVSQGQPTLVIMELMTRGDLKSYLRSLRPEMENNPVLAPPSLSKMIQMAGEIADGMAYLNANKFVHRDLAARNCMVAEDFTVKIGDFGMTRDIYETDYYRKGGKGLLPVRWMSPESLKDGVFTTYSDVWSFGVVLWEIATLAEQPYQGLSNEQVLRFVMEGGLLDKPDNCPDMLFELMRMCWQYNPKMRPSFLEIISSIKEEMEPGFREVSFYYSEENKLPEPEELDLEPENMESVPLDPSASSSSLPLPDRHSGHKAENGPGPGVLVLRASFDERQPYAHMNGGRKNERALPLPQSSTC
Experimental: as §1

[7] = tested on: DU145 cells; test: Invasion through Matrigel; type: cell-based; settings: indicated concentrations; 33 ng/mL HGF; Matrigel 1:5
Experimental: as §3, §4

[8] = tested on: DU145 spheroids; test: 3D spheroid proliferation; type: cell-based; settings: 33 ng/mL HGF, Matrigel, 72 hours
Experimental: Data are shown as the percent change in growth from T=0 to T=72 hours. For each of the six independent variables in each bar graph, a representative image at the 72 hour time point is shown. The six corresponding images below each respective bar graph
3D spheroid proliferation: Prior to seeding, cells were incubated with 2.5 ng/μl CellTracker Red (Life Technologies) in complete DMEM lacking Phenol Red for 5 minutes at room temperature then centrifuged at 1000 RPM for 5 minutes. […] The mixture of cells, treatments, and Matrigel in complete media was seeded at 2000 cells/well in a 96 well plate. The plate was centrifuged at 1000 RPM for 3 minutes to collect the cells into the bottom of the plate. Spheroid growth was imaged for up to 80 hours and analyzed for average red object area using the IncuCyte™ ZOOM software. Data are shown as percent change in spheroid growth between TO and […] with HGF normalized to 100% change in growth. Images were captured by the IncuCyte™ ZOOM imaging system and representative 10× images are shown.

Q: Which “proliferation in complete media in 2D assay” value ([1]; complete media) does the source give for `O=S(=O)(O)c1cc(N=C=S)ccc1C=Cc1ccc(N=C=S)cc1S(=O)(=O)O` [DIDS, 4,4′-Diisothiocyanatostilbene-2,2′-disulfonic acid] here?
A: The value was “minimal effects”.

Q: And the “serum-free proliferation in 2D assay” value ([1]; serum-free media)?
A: The value was “minimal effects”.

Q: And the “pMet levels in H1993 cells” value [2]?
A: Its value is “much less significant effects”.

Q: And the signs of toxicity ([3]; 5 mg/kg intraperitoneally, ˜2 weeks, mice)?
A: Its signs of toxicity is “No obvious signs of toxicity”.

Q: What about the “body weight compared to DMSO control” value ([3]; 5 mg/kg then 10 mg/kg i.p., 3×/week) of the same compound?
A: The value was “no change in body weight”.

Q: And the HGF-induced wound healing ([4]; 4 μM DIDS or 25 μM H2DIDS, 33 ng/ml HGF)?
A: The HGF-induced wound healing was “significantly reduced”.

Q: What about the EGF-mediated wound healing ([4]; 4 μM DIDS or 25 μM H2DIDS, 100 ng/ml EGF) of the same compound?
A: The EGF-mediated wound healing was “minimal effects”.

Q: And the “HGF-induced wound healing, dose response” value ([4]; indicated concentrations, 33 ng/mL HGF)?
A: Its value is “reduce HGF-induced wound healing in a dose response manner”.

Q: What about the HGF-induced cell scattering ([5]; 33 ng/ml HGF overnight) of the same compound?
A: Its HGF-induced cell scattering is “able to reduce HGF-induced”.

Q: And the EGF-induced cell scattering ([5]; 100 ng/ml EGF overnight)?
A: The EGF-induced cell scattering was “not EGF-induced”.

Q: And the IGFR activation [6]?
A: The IGFR activation was “do not significantly reduce”.

Q: And the “HGF-induced invasion through Matrigel” value [7]?
A: The value was “inhibited HGF-induced invasion through Matrigel in a dose-dependent manner”.

Q: And the “lowest concentration with some inhibitory effects on HGF-induced spheroid growth” value [8]?
A: Its value is 40 nM.

Q: What about the “decrease of HGF-induced DU145 spheroid growth” value ([8]; 5 μM compound) of the same compound?
A: The value was ~60%.
